Earlier results, collected in paper PMC10597649, “Effect of Astragali radix extract on pharmacokinetic behavior of dapagliflozin in healthy and type 2 diabetic rats” (Frontiers in Pharmacology, 2023).

Tested on: P-gp
Design: method as in Huang et al., 2012
Settings: ref Huang et al., 2012; cited from earlier work

## CC(=O)O[C@H]1[C@H](O[C@H]2CC[C@]34C[C@]35CC[C@]3(C)[C@@H]([C@@]6(C)CC[C@@H](C(C)(C)O)O6)[C@@H](O)C[C@@]3(C)[C@@H]5C[C@H](O[C@@H]3O[C@H](CO)[C@@H](O)[C@H](O)[C@H]3O)[C@H]4C2(C)C)OC[C@@H](O)[C@@H]1O [Astragaloside II]
  P-gp inhibition: potent P-gp inhibitor
